Here are results for 8 compounds from ChEMBL document CHEMBL1140558, “An atom efficient, solvent-free, green synthesis and antimycobacterial evaluation of 2-amino-6-methyl-4-aryl-8-[(E)-arylmethylidene]-5,6,7,8-tetrahydro-4H-pyrano[3,2-c]pyridine-3-carbonitriles” (2007).

Values after ≈ are worked out from the molar mass of the structure shown.

What is called MIC is the lowest concentration found to suppress growth. High values mean weaker potency, low ones greater potency.

For the assay, the system named is Mycobacterium tuberculosis. The assay is described as follows: Antimycobacterial activity against multidrug-resistant Mycobacterium tuberculosis by agar dilution method. In kind it is functional.
As for `NNC(=O)c1ccncc1` [ISONIAZID], it took 45.6 µM (≈ 6.25 µg/mL) to inhibit growth (MIC).
On to `COc1c(N2CCNC(C)C2)c(F)cc2c(=O)c(C(=O)O)cn(C3CC3)c12` (stereo not drawn) [GATIFLOXACIN], for which the MIC worked out at 8.34 µM (≈ 3.13 µg/mL).
Under `CN1CC2=C(OC(N)=C(C#N)C2c2ccc(N(C)C)cc2)/C(=C/c2ccc(N(C)C)cc2)C1` (stereo not drawn) stands 0.43 µM (≈ 0.19 µg/mL); under `CN1CC2=C(OC(N)=C(C#N)C2c2ccccc2Cl)/C(=C/c2ccccc2Cl)C1` (stereo not drawn), 3.68 µM (≈ 1.56 µg/mL).
Under `CN1CC2=C(OC(N)=C(C#N)C2c2ccc(Cl)cc2)/C(=C/c2ccc(Cl)cc2)C1` (stereo not drawn) stands 1.84 µM (≈ 0.781 µg/mL); under `CN1CC2=C(OC(N)=C(C#N)C2c2cccc([N+](=O)[O-])c2)/C(=C/c2cccc([N+](=O)[O-])c2)C1` (stereo not drawn), 1.75 µM (≈ 0.78 µg/mL).
Under `CN1CC2=C(OC(N)=C(C#N)C2c2cccc(F)c2)/C(=C/c2cccc(F)c2)C1` (stereo not drawn) stands 1.99 µM (≈ 0.779 µg/mL); under `CN1CC2=C(OC(N)=C(C#N)C2c2ccc(F)cc2)/C(=C/c2ccc(F)cc2)C1` (stereo not drawn), 0.97 µM (≈ 0.38 µg/mL).
